This assay has as its target T1, HscFRS (Homo sapiens, UniProt Q9Y285).
T1 sequence (Q9Y285 1-508): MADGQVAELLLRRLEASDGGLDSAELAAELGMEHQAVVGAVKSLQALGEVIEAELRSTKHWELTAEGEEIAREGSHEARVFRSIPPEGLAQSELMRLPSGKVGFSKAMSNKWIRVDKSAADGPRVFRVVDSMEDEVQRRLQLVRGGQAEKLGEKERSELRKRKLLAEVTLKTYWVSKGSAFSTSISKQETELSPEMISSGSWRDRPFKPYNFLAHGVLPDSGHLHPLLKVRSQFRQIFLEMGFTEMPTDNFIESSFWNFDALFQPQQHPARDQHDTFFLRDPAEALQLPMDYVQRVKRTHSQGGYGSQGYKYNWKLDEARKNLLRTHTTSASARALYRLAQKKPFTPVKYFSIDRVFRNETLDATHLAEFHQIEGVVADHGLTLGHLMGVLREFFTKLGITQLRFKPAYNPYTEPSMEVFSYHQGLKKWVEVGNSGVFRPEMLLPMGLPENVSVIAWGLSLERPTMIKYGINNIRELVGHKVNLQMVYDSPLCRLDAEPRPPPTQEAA
T1 sequence (Q9NSD9 1-589 partner): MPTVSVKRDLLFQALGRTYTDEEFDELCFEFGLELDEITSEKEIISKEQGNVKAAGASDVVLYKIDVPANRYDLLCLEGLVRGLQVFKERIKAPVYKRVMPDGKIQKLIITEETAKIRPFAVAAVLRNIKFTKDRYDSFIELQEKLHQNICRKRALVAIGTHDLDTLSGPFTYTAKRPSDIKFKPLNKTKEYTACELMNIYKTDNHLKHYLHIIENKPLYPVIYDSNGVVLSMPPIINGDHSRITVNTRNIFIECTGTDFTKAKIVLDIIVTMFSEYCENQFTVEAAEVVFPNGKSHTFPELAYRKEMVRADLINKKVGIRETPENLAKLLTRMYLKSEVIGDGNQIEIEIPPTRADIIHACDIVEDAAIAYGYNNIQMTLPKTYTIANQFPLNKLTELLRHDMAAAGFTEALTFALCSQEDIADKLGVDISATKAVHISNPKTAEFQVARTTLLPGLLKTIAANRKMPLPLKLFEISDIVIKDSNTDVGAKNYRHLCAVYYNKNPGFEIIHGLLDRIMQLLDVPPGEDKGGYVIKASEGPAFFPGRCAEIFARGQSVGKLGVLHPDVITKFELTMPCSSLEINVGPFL
The experiment in a line: Surface Plasmon Resonance binding, HscFRS. As to conditions: SPR, 25° C., PBS pH 7.4, 5% DMSO; read-out: cFRS Kd, Hs. On the procedure:
Surface Plasmon Resonance experiments to evaluate the binding of Compound 1 to proteins were carried out on a Biacore T200 instrument (GE Healthcare) at 25° C. The binding experiments were performed in buffer 10 mM phosphate buffered saline (PBS), pH 7.4, containing 5% dimethyl sulfoxide (DMSO). The flow system was primed with the running buffer before the initiation of the experiment. Both PfcFRS and HscFRS were immobilized to Sensor Chip CM5 by standard amine coupling chemistry using N-hydroxysuccinimide (NHS) and ethyl(dimethylaminopropyl) carbodiimide (EDC), to an immobilization level of approximately 1500 RU. The binding experiments were carried out in a single cycle kinetics mode. Compound 1 was serially diluted in running buffer, and injected at a flow rate of 60 μl min^−1 across both surface for 60 s and dissociation were set up for 120 s. The analysis was done using Biaevaluation (GE Healthcare) and GraphPad Prism 7 software (GraphPad Software Inc, USA). […] The equilibrium dissociation constants (Kd) were determined by plotting the measured response (Req) as a function of the analyte concentration. […] Measured sensograms illustrating the binding of various concentrations of Compound 1 to the protein are shown in FIG. 3B (PfcFRS) and 3C (HscFRS) including both the measured data and the 1:1 binding model fit.

The Kd is the concentration at which binding is half-saturated. Turning to `COC[C@@H]1[C@H](c2ccc(C#Cc3ccccc3)cc2)[C@@H]2CN(C(=O)Nc3ccc(OC4CC4)cc3)C[C@@H](O)[C@@H](O)CN12` [Compound 1, (3S,4R,8R,9R,10S)—N-(4-cyclopropoxyphenyl)-3,4-dihydroxy-10-(methoxymethyl)-9-(4-(phenylethynyl)phenyl)-1,6-diazabicyclo[6.2.0]decane-6-carboxamide], the dissociation constant (Kd) is 16 µM.

These data come from patent US20230279018A1, “AP[…] INHIBITION” (priority 2020, published 2023).
